Experimental data: publication PMC7856883 (Advanced Science, 2020)
Values joined by “and” are separate entries in the source; they are usually repeats but may differ in a detail not shown here. Equal entries are not always repeated.

Test system: A/California/09
Parameters: species or system BALB/c mice
Details: mouse, in vivo

## CCOC(=O)C1=C[C@@H](OC(CC)CC)[C@H](NC(C)=O)[C@@H](N)C1 [oseltamivir]
  survival: 10/10 and 0 out of 10 and no survival
